According to article PMC2248166, “Quantitative peptide binding motifs for 19 human and mouse MHC class I molecules derived using positional scanning combinatorial peptide libraries” (Immunome Research, 2008):
Where a SMILES comes first, the peptide text is derived from it.

These compounds were tested against HLA A*3001 (Homo sapiens, UniProt P04439, D140H/D185E/E176W/F33S/G80R/H175R/K168Q/R138E/R41S) (assay: biochemical).
Sequence of HLA A*3001 (P04439 25-365 limits assumed, stated change not applied): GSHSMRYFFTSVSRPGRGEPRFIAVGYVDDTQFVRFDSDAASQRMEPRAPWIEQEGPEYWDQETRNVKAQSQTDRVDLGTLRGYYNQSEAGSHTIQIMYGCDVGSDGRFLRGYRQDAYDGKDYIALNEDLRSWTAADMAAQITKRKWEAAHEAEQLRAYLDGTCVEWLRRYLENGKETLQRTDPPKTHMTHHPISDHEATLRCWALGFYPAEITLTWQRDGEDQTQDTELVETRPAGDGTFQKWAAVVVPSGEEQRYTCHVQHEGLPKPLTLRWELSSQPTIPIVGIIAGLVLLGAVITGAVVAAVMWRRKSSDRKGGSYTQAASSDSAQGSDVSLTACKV
Assay type: binding
Compound `CC(C)C[C@H](NC(=O)[C@@H](NC(=O)[C@H](CS)NC(=O)[C@H](C)NC(=O)[C@H](Cc1ccccc1)NC(=O)[C@H](CCCCN)NC(=O)[C@H](CO)NC(=O)[C@@H](N)CO)C(C)C)C(=O)N[C@@H](CCCCN)C(=O)O` [3102.0265] (H-SSKFACVLK-OH) has an IC50 of 9.9 nM.
`CC[C@H](C)[C@H](NC(=O)[C@H](CC(C)C)NC(=O)[C@@H](NC(=O)[C@@H](NC(=O)[C@H](CCCNC(=N)N)NC(=O)[C@H](Cc1ccccc1)NC(=O)[C@@H](N)CCCNC(=N)N)[C@@H](C)O)C(C)C)C(=O)N[C@@H](CO)C(=O)N[C@@H](CCCCN)C(=O)O` [3102.0004] (H-RFRTVLISK-OH) showed an IC50 of 4.6 nM.
`CC[C@H](C)[C@H](NC(=O)[C@@H](NC(=O)[C@@H](N)CCCCN)C(C)C)C(=O)N[C@H](C(=O)N[C@@H](CCCNC(=N)N)C(=O)N[C@@H](CC(N)=O)C(=O)N[C@@H](CC(C)C)C(=O)N[C@@H](CC(N)=O)C(=O)N[C@@H](CCCCN)C(=O)O)C(C)C` [3102.0191] (H-KVIVRNLNK-OH) showed an IC50 of 1.4 nM.
In the case of `CC[C@H](C)[C@H](NC(=O)[C@@H](N)CCCNC(=N)N)C(=O)N[C@@H](CCCNC(=N)N)C(=O)N[C@@H](Cc1ccccc1)C(=O)N[C@@H](Cc1ccccc1)C(=O)N[C@@H](Cc1ccc(O)cc1)C(=O)N[C@@H](CCCNC(=N)N)C(=O)N[C@@H](CCCCN)C(=O)N[C@@H](CCCCN)C(=O)O` [3102.0083] (H-RIRFFYRKK-OH), the IC50 is reported as 0.17 nM.
Compound `CC[C@H](C)[C@H](NC(=O)[C@H](CCCCN)NC(=O)[C@H](CO)NC(=O)[C@H](CCCCN)NC(=O)[C@@H](NC(=O)[C@@H](N)CCCNC(=N)N)[C@@H](C)O)C(=O)N[C@@H](CC(C)C)C(=O)N[C@@H](Cc1ccccc1)C(=O)NCC(=O)O` [3102.1348] (H-RTKSKILFG-OH) has an IC50 of 10 nM.
`CC[C@H](C)[C@H](NC(=O)[C@H](C)NC(=O)[C@H](CC(C)C)NC(=O)[C@H](Cc1c[nH]cn1)NC(=O)[C@H](CCC(N)=O)NC(=O)[C@@H](N)Cc1c[nH]cn1)C(=O)N[C@@H](CCSC)C(=O)N[C@@H](Cc1ccccc1)C(=O)N[C@@H](CCCCN)C(=O)O` [3102.0020] (H-HQHLAIMFK-OH) gave an IC50 of 5 nM.
`CC[C@H](C)[C@H](NC(=O)[C@H](CCSC)NC(=O)[C@H](Cc1ccccc1)NC(=O)[C@H](CC(=O)O)NC(=O)[C@H](CC(N)=O)NC(=O)[C@H](CCCCN)NC(=O)[C@@H](NC(=O)[C@@H](N)Cc1c[nH]cn1)[C@@H](C)CC)C(=O)N[C@@H](CCCCN)C(=O)O` [3102.0101] (H-HIKNDFMIK-OH) gave an IC50 of 1.6 nM.
`CC[C@H](C)[C@H](NC(=O)[C@H](CO)NC(=O)[C@@H](NC(=O)[C@H](CCCCN)NC(=O)[C@H](CCCCN)NC(=O)[C@H](CCC(N)=O)NC(=O)[C@@H](N)CCCNC(=N)N)[C@@H](C)CC)C(=O)N[C@@H](CC(C)C)C(=O)N[C@H](C(=O)O)C(C)C` [3102.0196] (H-RQKKISILV-OH) was tested, and the IC50 was 0.36 nM.
In the case of `CC[C@H](C)[C@H](NC(=O)[C@H](CCCCN)NC(=O)[C@@H](NC(=O)[C@@H](N)Cc1c[nH]cn1)[C@@H](C)O)C(=O)N[C@@H](CC(=O)O)C(=O)N[C@@H](CO)C(=O)N[C@@H](CCSC)C(=O)N[C@@H](Cc1ccccc1)C(=O)N[C@@H](CC(C)C)C(=O)O` [3102.0016] (H-HTKIDSMFL-OH), the IC50 is reported as 1.5 nM.
`CSCC[C@H](NC(=O)[C@H](CCCNC(=N)N)NC(=O)[C@H](Cc1ccc(O)cc1)NC(=O)[C@@H](N)CCCNC(=N)N)C(=O)N[C@@H](Cc1c[nH]cn1)C(=O)N1CCC[C@H]1C(=O)N[C@@H](CCSC)C(=O)N[C@@H](CO)C(=O)N[C@@H](CCCCN)C(=O)O` [3102.0268] (H-RYRMHPMSK-OH) gave an IC50 of 0.068 nM.
In the case of `CC[C@H](C)[C@H](NC(=O)[C@H](Cc1ccc(O)cc1)NC(=O)[C@@H](NC(=O)[C@@H](N)CCCCN)C(C)C)C(=O)N[C@@H](CC(N)=O)C(=O)N[C@@H](Cc1c[nH]cn1)C(=O)N1CCC[C@H]1C(=O)N[C@@H](Cc1ccccc1)C(=O)N[C@@H](CCSC)C(=O)O` [3102.0124] (H-KVYINHPFM-OH), the IC50 is reported as 0.52 nM.
Work on `CC(C)C[C@H](N)C(=O)N[C@H](C(=O)N[C@@H](CCCCN)C(=O)N[C@@H](CO)C(=O)N[C@@H](CO)C(=O)N[C@@H](Cc1ccccc1)C(=O)N[C@H](C(=O)N[C@@H](CCCCN)C(=O)N[C@@H](CCCCN)C(=O)O)C(C)C)C(C)C` [3102.0185] (H-LVKSSFVKK-OH) yielded an IC50 of 5.6 nM.
`CSCC[C@H](NC(=O)[C@H](CO)NC(=O)[C@H](CCCNC(=N)N)NC(=O)[C@@H]1CCCN1C(=O)[C@H](Cc1ccccc1)NC(=O)[C@H](CCCCN)NC(=O)[C@H](CO)NC(=O)[C@@H](N)CCCCN)C(=O)N[C@@H](CC(C)C)C(=O)O` [3102.0022] (H-KSKFPRSML-OH) was tested, and the IC50 was 31 nM.
Work on `CC[C@H](C)[C@H](NC(=O)[C@H](C)NC(=O)[C@H](Cc1ccc(O)cc1)NC(=O)[C@H](CCCCN)NC(=O)[C@H](CCCCN)NC(=O)[C@H](CCCCN)NC(=O)[C@@H](NC(=O)[C@@H](N)CCCCN)C(C)C)C(=O)NCC(=O)O` [3102.0280] (H-KVKKKYAIG-OH) yielded an IC50 of 1.6 nM.
For `CC[C@H](C)[C@H](NC(=O)[C@H](CCCCN)NC(=O)[C@H](CC(N)=O)NC(=O)[C@H](CC(N)=O)NC(=O)[C@H](CCCCN)NC(=O)[C@@H](NC(=O)[C@@H](N)CCSC)C(C)C)C(=O)N[C@@H](CCC(N)=O)C(=O)N[C@@H](CCCCN)C(=O)O` [3102.0137] (H-MVKNNKIQK-OH), the IC50 was 12 nM.
`CC[C@H](C)[C@H](NC(=O)[C@@H](N)CO)C(=O)N[C@@H](CCCCN)C(=O)N[C@@H](CCCNC(=N)N)C(=O)N[C@@H](CO)C(=O)N[C@@H](CC(N)=O)C(=O)N[C@H](C(=O)N[C@@H](Cc1ccccc1)C(=O)N[C@@H](C)C(=O)O)C(C)C` [3102.0214] (H-SIKRSNVFA-OH) was tested, and the IC50 was 3.6 nM.
For `CC(C)C[C@H](NC(=O)[C@H](CC(N)=O)NC(=O)[C@H](CC(C)C)NC(=O)[C@H](CCCNC(=N)N)NC(=O)[C@H](CCCNC(=N)N)NC(=O)[C@H](CO)NC(=O)[C@H](CCCCN)NC(=O)[C@H](CO)NC(=O)[C@@H](N)CCCCN)C(=O)O` [3102.0008] (H-KSKSRRLNL-OH), the IC50 was 13 nM.
In the case of `CSCC[C@H](NC(=O)[C@@H]1CCCN1C(=O)[C@H](CC(C)C)NC(=O)[C@H](CO)NC(=O)[C@H](CCC(=O)O)NC(=O)[C@H](CCCCN)NC(=O)[C@H](CC(N)=O)NC(=O)[C@@H](N)CCCCN)C(=O)N[C@@H](CC(C)C)C(=O)O` [3102.0195] (H-KNKESLPML-OH), the IC50 is reported as 18 nM.
With `CSCC[C@H](NC(=O)[C@H](CC(N)=O)NC(=O)[C@H](CCCNC(=N)N)NC(=O)[C@@H](NC(=O)[C@@H](N)CCCNC(=N)N)[C@@H](C)O)C(=O)N[C@@H](Cc1ccccc1)C(=O)N[C@@H](CCCNC(=N)N)C(=O)N[C@@H](CCCCN)C(=O)N[C@@H](CCCCN)C(=O)O` [3102.0060] (H-RTRNMFRKK-OH) the IC50 was 0.089 nM.
`CC(C)[C@H](NC(=O)[C@H](C)NC(=O)[C@H](Cc1ccccc1)NC(=O)[C@H](CO)NC(=O)[C@H](CS)NC(=O)[C@H](CCCNC(=N)N)NC(=O)[C@H](Cc1ccc(O)cc1)NC(=O)[C@@H](N)CCCNC(=N)N)C(=O)N[C@@H](C)C(=O)O` [3102.0102] (H-RYRCSFAVA-OH) showed an IC50 of 0.0038 nM.
`CC(C)C[C@H](NC(=O)[C@H](CC(N)=O)NC(=O)[C@H](CC(C)C)NC(=O)[C@H](Cc1c[nH]c2ccccc12)NC(=O)[C@H](CO)NC(=O)[C@H](CC(N)=O)NC(=O)[C@H](CCCCN)NC(=O)[C@H](C)NC(=O)[C@@H](N)CO)C(=O)O` [3102.0164] (H-SAKNSWLNL-OH) was tested, and the IC50 was 0.57 nM.
With `CC[C@H](C)[C@H](NC(=O)[C@@H](NC(=O)[C@H](CCCCN)NC(=O)[C@H](CO)NC(=O)[C@H](C)N)[C@@H](C)O)C(=O)N[C@@H](CC(N)=O)C(=O)N[C@@H](C)C(=O)N[C@@H](CC(C)C)C(=O)N[C@H](C(=O)O)C(C)C` [3102.0095] (H-ASKTINALV-OH) the IC50 was 0.18 nM.
Work on `CSCC[C@H](N)C(=O)N[C@@H](CO)C(=O)N[C@@H](CCCNC(=N)N)C(=O)N[C@@H](CCCNC(=N)N)C(=O)N[C@@H](Cc1ccc(O)cc1)C(=O)N[C@@H](CO)C(=O)N[C@@H](CCCNC(=N)N)C(=O)N[C@@H](CCC(=O)O)C(=O)N[C@@H](CCCCN)C(=O)O` [3102.0203] (H-MSRRYSREK-OH) yielded an IC50 of 1.3 nM.
`CSCC[C@H](N)C(=O)N[C@@H](CCCNC(=N)N)C(=O)N[C@@H](CCCNC(=N)N)C(=O)N[C@@H](CCC(=O)O)C(=O)N[C@@H](CCCNC(=N)N)C(=O)N[C@@H](C)C(=O)N[C@@H](C)C(=O)N[C@@H](Cc1ccc(O)cc1)C(=O)N[C@H](C(=O)O)C(C)C` [3102.0232] (H-MRRERAAYV-OH) gave an IC50 of 22 nM.
With `C[C@H](NC(=O)[C@H](CCCNC(=N)N)NC(=O)[C@H](CC(N)=O)NC(=O)[C@H](CCC(N)=O)NC(=O)[C@H](Cc1ccccc1)NC(=O)[C@H](CCCCN)NC(=O)[C@@H](NC(=O)[C@@H](N)CCCNC(=N)N)[C@@H](C)O)C(=O)N[C@@H](CCCCN)C(=O)O` [3102.0266] (H-RTKFQNRAK-OH) the IC50 was 0.16 nM.
Compound `CC[C@H](C)[C@H](NC(=O)[C@H](CC(N)=O)NC(=O)[C@H](CCCNC(=N)N)NC(=O)[C@@H](NC(=O)[C@@H](NC(=O)[C@H](CC(N)=O)NC(=O)[C@H](CCCNC(=N)N)NC(=O)[C@@H](NC(=O)[C@@H](N)CCCCN)[C@@H](C)O)C(C)C)[C@@H](C)CC)C(=O)O` [3102.0486] (H-KTRNVIRNI-OH) has an IC50 of 0.072 nM.
Compound `CC[C@H](C)[C@H](NC(=O)[C@@H](NC(=O)[C@H](CO)NC(=O)[C@@H](N)CCSC)C(C)C)C(=O)N[C@@H](CO)C(=O)N[C@@H](CC(N)=O)C(=O)N1CCC[C@H]1C(=O)N[C@@H](CO)C(=O)N[C@@H](CCCCN)C(=O)O` [3102.0255] (H-MSVISNPSK-OH) has an IC50 of 20 nM.
In the case of `CC[C@H](C)[C@H](NC(=O)[C@H](CCCCN)NC(=O)[C@H](C)NC(=O)CN)C(=O)NCC(=O)N[C@@H](CS)C(=O)N[C@H](C(=O)N[C@@H](CC(N)=O)C(=O)N[C@H](C(=O)O)C(C)C)[C@@H](C)CC` [3102.1347] (H-GAKIGCINV-OH), the IC50 is reported as 9.1 nM.
For `C[C@@H](O)[C@H](N)C(=O)N[C@H](C(=O)N[C@@H](CCCCN)C(=O)N[C@@H](CC(=O)O)C(=O)N[C@@H](Cc1ccc(O)cc1)C(=O)N[C@@H](Cc1ccccc1)C(=O)N[C@@H](CO)C(=O)N[C@@H](Cc1ccccc1)C(=O)N[C@@H](CCCCN)C(=O)O)[C@@H](C)O` [3102.0168] (H-TTKDYFSFK-OH), the IC50 was 1.2 nM.
Work on `CC[C@H](C)[C@H](NC(=O)[C@H](CCSC)NC(=O)[C@H](CCCCN)NC(=O)[C@@H](NC(=O)[C@@H](N)CC(C)C)C(C)C)C(=O)N[C@@H](CC(N)=O)C(=O)N[C@@H](Cc1c[nH]cn1)C(=O)N[C@@H](CC(C)C)C(=O)N[C@@H](CCCCN)C(=O)O` [3102.0010] (H-LVKMINHLK-OH) yielded an IC50 of 42 nM.
